What all share (assay): relative viability (nuclei count vs DMSO), 5 days (fraction); higher = more cells survive
Compound in the test “Bemcentinib + Olaparib”: Nc1nc(Nc2ccc3c(c2)CC[C@@H](N2CCCC2)CC3)nn1-c1cc2c(nn1)-c1ccccc1CCC2 [Bemcentinib] + O=C(c1cc(Cc2n[nH]c(=O)c3ccccc23)ccc1F)N1CCN(C(=O)C2CC2)CC1 [Olaparib] (partner 8 µM)
The gist of the method:
(§1)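 Lung cancer cell lines, seeded in 1536-well plates, were treated the following day by pin tool with a single drug or with five library-drug doses (not always all listed) in √10 steps on top of a fixed anchor-drug dose. Cells were fixed and nuclei stained in one step after 5 days, and nuclei were counted. Relative viability is the nuclei count for treated wells divided by that for vehicle wells, reported as medians of duplicate plates.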

Compound in the test “Bemcentinib + Phenformin”: Nc1nc(Nc2ccc3c(c2)CC[C@@H](N2CCCC2)CC3)nn1-c1cc2c(nn1)-c1ccccc1CCC2 [Bemcentinib] + N=C(N)NC(=N)NCCc1ccccc1 [Phenformin] (partner 250 µM)
The gist of the method:
as §1

Compound in test [1]: CC1=CC=C(C=C1)C(=O)CN2C3=C(CCCC3)SC2=N [Pifithrin_alpha] + CC(=O)Nc1cccc(-n2c(=O)n(C3CC3)c(=O)c3c(Nc4ccc(I)cc4F)n(C)c(=O)c(C)c32)c1 [Trametinib] (partner 0.02 µM)
In a few lines:
as §1

Compound in the test “Bemcentinib + Navitoclax”: Nc1nc(Nc2ccc3c(c2)CC[C@@H](N2CCCC2)CC3)nn1-c1cc2c(nn1)-c1ccccc1CCC2 [Bemcentinib] + CC1(C)CCC(c2ccc(Cl)cc2)=C(CN2CCN(c3ccc(C(=O)NS(=O)(=O)c4ccc(N[C@H](CCN5CCOCC5)CSc5ccccc5)c(S(=O)(=O)C(F)(F)F)c4)cc3)CC2)C1 [Navitoclax] (partner 0.5 µM)
The gist of the method: as §1

NCI-H1993: the relative viability in the test with Bemcentinib + Olaparib (first compound 0.04 µM) came out at 1.05; with Bemcentinib + Olaparib (first compound 0.1265 µM), 1.23; with Bemcentinib + Olaparib (first compound 0.4 µM), 1; in the test with Bemcentinib + Olaparib (first compound 1.265 µM), 1.15; with Bemcentinib + Olaparib (first compound 4 µM), 1.16; with Bemcentinib + Phenformin (first compound 0.04 µM), 0.465. In addition, the relative viability with Bemcentinib + Phenformin (first compound 0.1265 µM) is 0.501; with Bemcentinib + Phenformin (first compound 0.4 µM), 0.528; with Bemcentinib + Phenformin (first compound 1.265 µM), 0.505; with Bemcentinib + Phenformin (first compound 4 µM), 0.487; in test [1] (first compound 1 µM), 0.485; in test [1] (first compound 3.162 µM) it was 0.418. For the same cell line, the relative viability was found to be 0.508 in test [1] (first compound 10 µM); 0.397 in test [1] (first compound 31.62 µM); 0.4 in test [1] (first compound 100 µM); 0.897 with Bemcentinib + Navitoclax (first compound 0.04 µM); 0.911 in the test with Bemcentinib + Navitoclax (first compound 0.1265 µM); 1.02 in the test with Bemcentinib + Navitoclax (first compound 0.4 µM). Also, the relative viability with Bemcentinib + Navitoclax (first compound 1.265 µM) was 0.994; with Bemcentinib + Navitoclax (first compound 4 µM), 1.08.
Consider NCI-H2009, for which the relative viability was 0.651 with Bemcentinib + Olaparib (first compound 0.04 µM); 0.778 with Bemcentinib + Olaparib (first compound 0.1265 µM); 0.734 with Bemcentinib + Olaparib (first compound 0.4 µM); 0.698 in the test with Bemcentinib + Olaparib (first compound 1.265 µM); 0.697 with Bemcentinib + Olaparib (first compound 4 µM); 0.497 in the test with Bemcentinib + Phenformin (first compound 0.04 µM). Also, the relative viability with Bemcentinib + Phenformin (first compound 0.1265 µM) worked out at 0.544; in the test with Bemcentinib + Phenformin (first compound 0.4 µM), 0.489; with Bemcentinib + Phenformin (first compound 1.265 µM) it was 0.466; with Bemcentinib + Phenformin (first compound 4 µM), 0.418; in test [1] (first compound 1 µM) it was 0.26; in test [1] (first compound 3.162 µM), 0.265. The relative viability in test [1] (first compound 10 µM) is 0.253; in test [1] (first compound 31.62 µM), 0.218; in test [1] (first compound 100 µM), 0.234; with Bemcentinib + Navitoclax (first compound 0.04 µM), 1.12; with Bemcentinib + Navitoclax (first compound 0.1265 µM) it was 1.16; in the test with Bemcentinib + Navitoclax (first compound 0.4 µM), 1.22. Moreover, the relative viability in the test with Bemcentinib + Navitoclax (first compound 1.265 µM) came to 1.14; in the test with Bemcentinib + Navitoclax (first compound 4 µM) it was 1.21.
On to NCI-H2023, for which the relative viability with Bemcentinib + Olaparib (first compound 0.04 µM) came out at 0.461; with Bemcentinib + Olaparib (first compound 0.1265 µM), 0.487; with Bemcentinib + Olaparib (first compound 0.4 µM), 0.463; in the test with Bemcentinib + Olaparib (first compound 1.265 µM), 0.511; in the test with Bemcentinib + Olaparib (first compound 4 µM) it was 0.501; with Bemcentinib + Phenformin (first compound 0.04 µM) it was 0.398. In addition, the relative viability stood at 0.445 in the test with Bemcentinib + Phenformin (first compound 0.1265 µM); 0.424 in the test with Bemcentinib + Phenformin (first compound 0.4 µM); 0.423 in the test with Bemcentinib + Phenformin (first compound 1.265 µM); 0.365 with Bemcentinib + Phenformin (first compound 4 µM); 0.512 in test [1] (first compound 1 µM); 0.386 in test [1] (first compound 3.162 µM). In addition, the relative viability stood at 0.324 in test [1] (first compound 10 µM); 0.213 in test [1] (first compound 31.62 µM); 0.214 in test [1] (first compound 100 µM); 0.963 with Bemcentinib + Navitoclax (first compound 0.04 µM); 1.12 in the test with Bemcentinib + Navitoclax (first compound 0.1265 µM); 1.11 with Bemcentinib + Navitoclax (first compound 0.4 µM). The relative viability in the test with Bemcentinib + Navitoclax (first compound 1.265 µM) was found to be 1.12; in the test with Bemcentinib + Navitoclax (first compound 4 µM), 0.996.
For the cell line NCI-H2085, the relative viability with Bemcentinib + Olaparib (first compound 0.04 µM) was determined as 0.747; with Bemcentinib + Olaparib (first compound 0.1265 µM), 0.707; in the test with Bemcentinib + Olaparib (first compound 0.4 µM), 0.768; with Bemcentinib + Olaparib (first compound 1.265 µM) it was 0.755; with Bemcentinib + Olaparib (first compound 4 µM), 0.741; with Bemcentinib + Phenformin (first compound 0.04 µM), 0.694. Besides, the relative viability with Bemcentinib + Phenformin (first compound 0.1265 µM) came to 0.776; with Bemcentinib + Phenformin (first compound 0.4 µM), 0.688; in the test with Bemcentinib + Phenformin (first compound 1.265 µM) it was 0.572; in the test with Bemcentinib + Phenformin (first compound 4 µM), 0.697; in test [1] (first compound 1 µM), 0.452; in test [1] (first compound 3.162 µM), 0.444. In addition, the relative viability was determined as 0.461 in test [1] (first compound 10 µM); 0.463 in test [1] (first compound 31.62 µM); 0.445 in test [1] (first compound 100 µM); 1.07 with Bemcentinib + Navitoclax (first compound 0.04 µM); 1.07 with Bemcentinib + Navitoclax (first compound 0.1265 µM); 1.1 in the test with Bemcentinib + Navitoclax (first compound 0.4 µM). Moreover, the relative viability was 1.18 in the test with Bemcentinib + Navitoclax (first compound 1.265 µM) and 1.1 with Bemcentinib + Navitoclax (first compound 4 µM).
NCI-H2087: the relative viability in the test with Bemcentinib + Olaparib (first compound 0.04 µM) is 0.638; with Bemcentinib + Olaparib (first compound 0.1265 µM), 0.65; with Bemcentinib + Olaparib (first compound 0.4 µM), 0.616; with Bemcentinib + Olaparib (first compound 1.265 µM), 0.614; with Bemcentinib + Olaparib (first compound 4 µM), 0.644; in the test with Bemcentinib + Phenformin (first compound 0.04 µM), 0.435. Moreover, the relative viability with Bemcentinib + Phenformin (first compound 0.1265 µM) is 0.481; with Bemcentinib + Phenformin (first compound 0.4 µM), 0.52; with Bemcentinib + Phenformin (first compound 1.265 µM), 0.492; with Bemcentinib + Phenformin (first compound 4 µM) it was 0.487; in test [1] (first compound 1 µM), 0.178; in test [1] (first compound 3.162 µM), 0.196. Further, the relative viability in test [1] (first compound 10 µM) was 0.169; in test [1] (first compound 31.62 µM), 0.183; in test [1] (first compound 100 µM), 0.165; with Bemcentinib + Navitoclax (first compound 0.04 µM), 1.16; with Bemcentinib + Navitoclax (first compound 0.1265 µM), 1.03; with Bemcentinib + Navitoclax (first compound 0.4 µM), 1.15. In addition, the relative viability with Bemcentinib + Navitoclax (first compound 1.265 µM) amounted to 0.992; in the test with Bemcentinib + Navitoclax (first compound 4 µM), 1.02.
In the case of NCI-H2126, the relative viability worked out at 0.999 with Bemcentinib + Olaparib (first compound 0.04 µM); 0.931 with Bemcentinib + Olaparib (first compound 0.1265 µM); 0.948 with Bemcentinib + Olaparib (first compound 0.4 µM); 1.01 with Bemcentinib + Olaparib (first compound 1.265 µM); 0.916 in the test with Bemcentinib + Olaparib (first compound 4 µM); 0.502 with Bemcentinib + Phenformin (first compound 0.04 µM). Also, the relative viability came out at 0.496 with Bemcentinib + Phenformin (first compound 0.1265 µM); 0.51 with Bemcentinib + Phenformin (first compound 0.4 µM); 0.596 in the test with Bemcentinib + Phenformin (first compound 1.265 µM); 0.568 in the test with Bemcentinib + Phenformin (first compound 4 µM); 0.456 in test [1] (first compound 1 µM); 0.503 in test [1] (first compound 3.162 µM). Besides, the relative viability in test [1] (first compound 10 µM) was 0.487; in test [1] (first compound 31.62 µM), 0.445; in test [1] (first compound 100 µM), 0.452; in the test with Bemcentinib + Navitoclax (first compound 0.04 µM), 0.835; in the test with Bemcentinib + Navitoclax (first compound 0.1265 µM), 0.929; with Bemcentinib + Navitoclax (first compound 0.4 µM), 0.892. Further, the relative viability with Bemcentinib + Navitoclax (first compound 1.265 µM) was found to be 0.869; with Bemcentinib + Navitoclax (first compound 4 µM), 0.833.
Regarding NCI-H2170, the relative viability with Bemcentinib + Olaparib (first compound 0.04 µM) was determined as 0.563; in the test with Bemcentinib + Olaparib (first compound 0.1265 µM), 0.661; with Bemcentinib + Olaparib (first compound 0.4 µM), 0.567; with Bemcentinib + Olaparib (first compound 1.265 µM), 0.583; with Bemcentinib + Olaparib (first compound 4 µM) it was 0.589; with Bemcentinib + Phenformin (first compound 0.04 µM), 0.402. Besides, the relative viability with Bemcentinib + Phenformin (first compound 0.1265 µM) was found to be 0.429; with Bemcentinib + Phenformin (first compound 0.4 µM), 0.456; in the test with Bemcentinib + Phenformin (first compound 1.265 µM), 0.389; with Bemcentinib + Phenformin (first compound 4 µM) it was 0.435; in test [1] (first compound 1 µM) it was 0.994; in test [1] (first compound 3.162 µM) it was 0.987. For the same cell line, the relative viability came out at 0.836 in test [1] (first compound 10 µM); 0.794 in test [1] (first compound 31.62 µM); 0.903 in test [1] (first compound 100 µM); 0.701 with Bemcentinib + Navitoclax (first compound 0.04 µM); 0.636 with Bemcentinib + Navitoclax (first compound 0.1265 µM); 0.627 in the test with Bemcentinib + Navitoclax (first compound 0.4 µM). Also, the values for the relative viability in the test with Bemcentinib + Navitoclax (first compound 1.265 µM) and in the test with Bemcentinib + Navitoclax (first compound 4 µM) were 0.675 and 0.638, respectively.

The values are drawn from the supplement of paper PMC10307832.
